Consider 1 compound from patent US20260169002A1, “PROFILING NEWLY-SYNTHESIZED GLYCOPROTEINS AS MOLECULAR SIGNATURES OF INJURY IN DONOR ORGANS” (Carnegie Mellon University, priority 2022, published 2026).

One data set deals with rat lungs. Briefly: Bioorthogonal azide labeling of NewS-glycoproteins during EVLP, histological detection. The conditions noted are these: 100 μM Ac4GalNAz vs 0.1% DMSO in Steen solution, 4-hour EVLP. Here is the method:
(§1) Ex vivo lung perfusion (EVLP) in rats: EVLP was performed using a commercially available rodent EVLP system (IL-2 Isolated Perfused Rat or Guinea Pig Lung System; Harvard Apparatus, Holliston, MA) as described elsewhere (Noda et al., 2014, Eur J Cardio-Thorac Surg., 45:e54-60; and (Noda et al., 2021, Sci Rep., 11:12265). Acellular Steen solution (XVIVO Perfusion AB, Denver, CO) was used for perfusate and lungs were medicated with methylprednisolone (SOLU-MEDROL®; Pfizer, Inc., New York, NY) and cephalosporin (Cefazolin; WG Critical Care LLC, Paramus, NJ) equally in all experimental groups using EVLP. […] Pulmonary artery pressure, peak airway pressure, and airway flow were monitored continuously, and dynamic lung compliance and pulmonary vascular resistance were also analyzed. […]
Immunostaining: Rehydrated rat or human lung sections were incubated with antigen unmasking solution at 95° C. for 20 minutes. […] For quantification, three random fields were taken in each lung section. Azide >biotin intensities for each field taken were measured by Fiji software (Schindelin et al., supra). Laminin channels were converted to 8-bit and intensities were measured for Laminin coverage areas. […]

The next data set concerns human lungs. The data set is described as follows: Bioorthogonal azide labeling during EVLP, histological detection in human lung sections. The conditions noted are these: Ac4GalNAz vs vehicle in perfusate, 6 hour EVLP. Here is the method:
Immunostaining: Rehydrated rat or human lung sections were incubated with antigen unmasking solution at 95° C. for 20 minutes. After cooling down, the sections were reacted with Alkyne-PEG4-biotin (Click Chemistry Tools, TA105) under copper-catalyzed cycloaddition (CuAAC) conditions (Rostovtsev et al., 2002, Angewandte Chemie., 114:2708-2711), or reacted without copper catalyst as a control. All samples were blocked with 1% bovine serum albumin (BSA) in PBS for 20 minutes and incubated with a primary antibody against Laminin (Abcam, Cambridge, UK; ab11575) at a dilution of 1:500. The slides were then stained with streptavidin conjugated to ALEXA FLUOR®-647 (Invitrogen, S21374) and Donkey-anti-Rabbit IgG conjugated to ALEXA FLUOR®-488 (Invitrogen, A32790) at a dilution of 1:500. All slides were mounted with DAPI-containing Fluoromount solution (SouthernBiotech, Birmingham, AL; 0100-20). Single-field images were taken using confocal microscopy and stitched images were taken by EVOS FL Auto 2 Imaging System (Thermo Fisher Scientific, Waltham, MA). For quantification, three random fields were taken in each lung section. Azide >biotin intensities for each field taken were measured by Fiji software (Schindelin et al., supra). Laminin channels were converted to 8-bit and intensities were measured for Laminin coverage areas. […]

For the next data set, the system named is post-EVLP lungs. The data set is described as follows: LC-MS/MS proteomic analysis of Input and Eluate samples of lungs with or without Ac4GalNAz during EVLP. Further details: species or system rat. The conditions noted are these: before affinity enrichment. On the procedure: Chemoselective enrichment of azide-tagged proteins: Cellular protein extracts of the lungs were reacted with Alkyne-PEG4-desthiobiotin (Click Chemistry Tools, 1109) under CuAAC conditions. Proteins were precipitated with four volumes of ice-cold acetone at −20° C. overnight to remove unreacted Alkyne-PEG4-desthiobiotin. The protein pellets were air-dried and re-dissolved in 2% SDS in PBS (pH 7.40), and then saved as Input samples. Following quantification by BCA, an aliquot of each Input sample containing 1.7 mg of protein was introduced to 75 μL streptavidin-conjugated resin (Thermo Fisher Scientific; 53117) for desthiobiotinylated protein pull-down. Following a 3-hour binding period, Supernatants were collected and the resins were washed 7 times for 15 minutes each with 2% SDS, 40 mM additional NaCl in PBS (pH 7.40). The pulled-down proteins were eluted with 30 mM biotin in 2% SDS, 40 mM additional NaCl in PBS (pH 7.40) (Eluting buffer) at room temperature for 1 hour. […] Protein concentrations of the Eluate samples were determined by BCA assay, and the eluates were then stored at −80° C. for SDS-PAGE and proteomic analysis. […]
Samples were analyzed using a UPLC-MS/MS system consisting of an Easy-nLC 1200 ultra-high-pressure liquid chromatography system and an Orbitrap Fusion Lumos mass spectrometer (Thermo Fisher Scientific). […]

For a further data set, the system named is healthy rat lungs. Briefly: Effect of Ac4GalNAz probe on lung graft quality during EVLP (morphology, physiology). The conditions noted are these: 100 μM Ac4GalNAz vs vehicle perfusion, monitored every hour, 4-hour EVLP. Here is the method: as §1
Airspace morphology evaluation: Following EVLP, the lungs receiving Ac4GaIN Az or vehicle control administration were fixed in Formalin, embedded in paraffin, and sectioned to a thickness of 5 μm. […] Horizontal and vertical mean linear intercepts of each image were measured by Fiji software (Schindelin et al., 2012, Exp Rev Resp Med., 11:119-128), following a protocol described elsewhere (Crowley et al., 2019, BMC Pulm Med., 19:206) The mean values of horizontal and vertical mean linear intercepts of the three images were calculated as the estimated airspace size average of each lung section.

Turning to `CC(=O)OC[C@H]1OC(OC(C)=O)[C@H](NC(=O)CN=[N+]=[N-])[C@@H](OC(C)=O)[C@H]1OC(C)=O` (some centres unmarked) [Ac4GalNAz, N-azidoacetylgalactosamine-tetraacylated], the “Azide labeling of lung tissue (azide→biotin fluorescence)” value with rat lungs was “robust and specific azide labeling”. For the same compound, in the data set on human lungs, the “Azide labeling of lung tissue (azide→biotin fluorescence)” value is given as “also was observed”. For the same compound, the “Effect on overall lung proteome (Input samples, Pearson correlation, hierarchical clustering)” value in the data set with post-EVLP lungs is given as “did not significantly alter”. Moreover, in the data set with healthy rat lungs, the “Lung compliance during EVLP” value is given as “no significant differences” and the “Pulmonary vascular resistance during EVLP” value is “no significant differences”.
